How the values were obtained:
Assay in all cases: Test E pre-/postemergence plant response
Format in all cases: in vivo
[1] = test system: annual bluegrass (Poa annua); details: scale 0 to 100
Outline: (§1)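 Pre/post herbicide screen; formulation: non-phytotoxic solvent mix + surfactant. Post timing 1–4 leaves (2–18 cm ht). Greenhouse 14–21 d; visual 0 (none) to 100 (complete control) vs controls.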

[2] = test system: naked crabgrass (Digitaria nuda); details: scale 0 to 100
Outline: as §1

[3] = test system: large crabgrass (Digitaria sanguinalis); details: scale 0 to 100
Outline: as §1

[4] = test system: surinam grass (Brachiaria decumbens); details: scale 0 to 100
Outline: as §1

[5] = test system: common mallow (Malva sylvestris); details: scale 0 to 100
Outline: as §1

[6] = test system: purple nutsedge (Cyperus rotundus); details: scale 0 to 100
Outline: as §1

[7] = test system: green foxtail (Setaria viridis); details: scale 0 to 100
Outline: as §1

[8] = test system: itchgrass (Rottboellia cochinchinensis); details: scale 0 to 100
Outline: as §1

[9] = test system: common chickweed (Stellaria media); details: Postemergence, scale 0 to 100
Outline: as §1

[10] = test system: Italian ryegrass (Lolium multiflorum); details: scale 0 to 100
Outline: as §1

[11] = test system: pitted morningglory (Ipomoea lacunosa); details: scale 0 to 100
Outline: as §1

[12] = test system: johnsongrass (Sorghum halepense); details: scale 0 to 100
Outline: as §1

[13] = test system: broadleaf signalgrass (Brachiaria platyphylla); details: scale 0 to 100
Outline: as §1

[14] = test system: quackgrass (Elytrigia repens); details: scale 0 to 100
Outline: as §1

[15] = test system: bermudagrass (Cynodon dactylon); details: scale 0 to 100
Outline: as §1

Q: `COC(=O)Oc1cnn(C)c(=O)c1-n1nc(-c2ccc(Cl)cc2)cc1C` [Compound 33] was tested. Which “Plant response rating, Bluegrass” value ([1]; 8 g ai/ha, Preemergence) did it give?
A: 0

Q: What about the “Plant response rating, Bluegrass” value ([1]; 16 g ai/ha, Preemergence) of the same molecule?
A: 0

Q: What about the “Plant response rating, Bluegrass” value ([1]; 31 g ai/ha, Preemergence) of the same molecule?
A: 0

Q: What about the “Plant response rating, Bluegrass” value ([1]; 62 g ai/ha, Preemergence) of the same molecule?
A: 0

Q: What about the “Plant response rating, Bluegrass” value ([1]; Postemergence, 8 g ai/ha) of the same molecule?
A: 0

Q: What about the “Plant response rating, Bluegrass” value ([1]; Postemergence, 16 g ai/ha) of the same molecule?
A: 0

Q: And the “Plant response rating, Bluegrass” value ([1]; Postemergence, 31 g ai/ha)?
A: 5

Q: And the “Plant response rating, Bluegrass” value ([1]; Postemergence, 62 g ai/ha)?
A: 5

Q: What about the “Plant response rating, Crabgrass, Naked” value ([2]; 8 g ai/ha, Preemergence) of the same molecule?
A: 75

Q: And the “Plant response rating, Crabgrass, Naked” value ([2]; 16 g ai/ha, Preemergence)?
A: 95

Q: What about the “Plant response rating, Crabgrass, Naked” value ([2]; 31 g ai/ha, Preemergence) of the same molecule?
A: 100

Q: What about the “Plant response rating, Crabgrass, Naked” value ([2]; 62 g ai/ha, Preemergence) of the same molecule?
A: 100

Q: And the “Plant response rating, Crabgrass, Naked” value ([2]; Postemergence, 8 g ai/ha)?
A: 75

Q: And the “Plant response rating, Crabgrass, Naked” value ([2]; Postemergence, 16 g ai/ha)?
A: 90

Q: What about the “Plant response rating, Crabgrass, Naked” value ([2]; Postemergence, 31 g ai/ha) of the same molecule?
A: 90

Q: What about the “Plant response rating, Crabgrass, Naked” value ([2]; Postemergence, 62 g ai/ha) of the same molecule?
A: 98

Q: What about the “Plant response rating, Crabgrass, Large” value ([3]; 8 g ai/ha, Preemergence) of the same molecule?
A: 40

Q: And the “Plant response rating, Crabgrass, Large” value ([3]; 16 g ai/ha, Preemergence)?
A: 75

Q: What about the “Plant response rating, Crabgrass, Large” value ([3]; 31 g ai/ha, Preemergence) of the same molecule?
A: 100

Q: And the “Plant response rating, Crabgrass, Large” value ([3]; 62 g ai/ha, Preemergence)?
A: 100

Q: And the “Plant response rating, Crabgrass, Large” value ([3]; Postemergence, 8 g ai/ha)?
A: 70

Q: And the “Plant response rating, Crabgrass, Large” value ([3]; Postemergence, 16 g ai/ha)?
A: 75

Q: And the “Plant response rating, Crabgrass, Large” value ([3]; Postemergence, 31 g ai/ha)?
A: 90

Q: What about the “Plant response rating, Crabgrass, Large” value ([3]; Postemergence, 62 g ai/ha) of the same molecule?
A: 95

Q: And the “Plant response rating, Surinam Grass” value ([4]; 16 g ai/ha, Preemergence)?
A: 98

Q: What about the “Plant response rating, Surinam Grass” value ([4]; 31 g ai/ha, Preemergence) of the same molecule?
A: 98

Q: And the “Plant response rating, Surinam Grass” value ([4]; 62 g ai/ha, Preemergence)?
A: 100

Q: What about the “Plant response rating, Surinam Grass” value ([4]; Postemergence, 8 g ai/ha) of the same molecule?
A: 75

Q: What about the “Plant response rating, Surinam Grass” value ([4]; Postemergence, 16 g ai/ha) of the same molecule?
A: 75

Q: And the “Plant response rating, Surinam Grass” value ([4]; Postemergence, 31 g ai/ha)?
A: 100

Q: What about the “Plant response rating, Surinam Grass” value ([4]; Postemergence, 62 g ai/ha) of the same molecule?
A: 100

Q: And the “Plant response rating, Mallow” value ([5]; 16 g ai/ha, Preemergence)?
A: 0

Q: What about the “Plant response rating, Mallow” value ([5]; 31 g ai/ha, Preemergence) of the same molecule?
A: 0

Q: And the “Plant response rating, Mallow” value ([5]; 62 g ai/ha, Preemergence)?
A: 0

Q: And the “Plant response rating, Mallow” value ([5]; Postemergence, 8 g ai/ha)?
A: 0

Q: And the “Plant response rating, Mallow” value ([5]; Postemergence, 16 g ai/ha)?
A: 0

Q: And the “Plant response rating, Mallow” value ([5]; Postemergence, 31 g ai/ha)?
A: 0

Q: And the “Plant response rating, Mallow” value ([5]; Postemergence, 62 g ai/ha)?
A: 0

Q: What about the “Plant response rating, Nutsedge, Purple” value ([6]; 16 g ai/ha, Preemergence) of the same molecule?
A: 0

Q: And the “Plant response rating, Nutsedge, Purple” value ([6]; 31 g ai/ha, Preemergence)?
A: 0

Q: And the “Plant response rating, Nutsedge, Purple” value ([6]; 62 g ai/ha, Preemergence)?
A: 0

Q: And the “Plant response rating, Nutsedge, Purple” value ([6]; Postemergence, 8 g ai/ha)?
A: 0

Q: What about the “Plant response rating, Nutsedge, Purple” value ([6]; Postemergence, 16 g ai/ha) of the same molecule?
A: 0

Q: What about the “Plant response rating, Nutsedge, Purple” value ([6]; Postemergence, 31 g ai/ha) of the same molecule?
A: 0

Q: What about the “Plant response rating, Nutsedge, Purple” value ([6]; Postemergence, 62 g ai/ha) of the same molecule?
A: 0

Q: What about the “Plant response rating, Foxtail, Green” value ([7]; 8 g ai/ha, Preemergence) of the same molecule?
A: 40

Q: What about the “Plant response rating, Foxtail, Green” value ([7]; 16 g ai/ha, Preemergence) of the same molecule?
A: 65

Q: And the “Plant response rating, Foxtail, Green” value ([7]; 31 g ai/ha, Preemergence)?
A: 100

Q: What about the “Plant response rating, Foxtail, Green” value ([7]; 62 g ai/ha, Preemergence) of the same molecule?
A: 100

Q: What about the “Plant response rating, Foxtail, Green” value ([7]; Postemergence, 8 g ai/ha) of the same molecule?
A: 60

Q: What about the “Plant response rating, Foxtail, Green” value ([7]; Postemergence, 16 g ai/ha) of the same molecule?
A: 65

Q: What about the “Plant response rating, Foxtail, Green” value ([7]; Postemergence, 31 g ai/ha) of the same molecule?
A: 75

Q: What about the “Plant response rating, Foxtail, Green” value ([7]; Postemergence, 62 g ai/ha) of the same molecule?
A: 95

Q: And the “Plant response rating, Itchgrass” value ([8]; 16 g ai/ha, Preemergence)?
A: 60

Q: What about the “Plant response rating, Itchgrass” value ([8]; 31 g ai/ha, Preemergence) of the same molecule?
A: 80

Q: And the “Plant response rating, Itchgrass” value ([8]; 62 g ai/ha, Preemergence)?
A: 80

Q: What about the “Plant response rating, Itchgrass” value ([8]; Postemergence, 8 g ai/ha) of the same molecule?
A: 40

Q: What about the “Plant response rating, Itchgrass” value ([8]; Postemergence, 16 g ai/ha) of the same molecule?
A: 65

Q: And the “Plant response rating, Itchgrass” value ([8]; Postemergence, 31 g ai/ha)?
A: 70

Q: What about the “Plant response rating, Itchgrass” value ([8]; Postemergence, 62 g ai/ha) of the same molecule?
A: 75

Q: What about the “Plant response rating, Chickweed” value ([9]; 8 g ai/ha) of the same molecule?
A: 0

Q: And the “Plant response rating, Chickweed” value ([9]; 16 g ai/ha)?
A: 0

Q: What about the “Plant response rating, Chickweed” value ([9]; 31 g ai/ha) of the same molecule?
A: 0

Q: What about the “Plant response rating, Ryegrass, Italian” value ([10]; 16 g ai/ha, Preemergence) of the same molecule?
A: 98

Q: And the “Plant response rating, Ryegrass, Italian” value ([10]; 31 g ai/ha, Preemergence)?
A: 100

Q: What about the “Plant response rating, Ryegrass, Italian” value ([10]; 62 g ai/ha, Preemergence) of the same molecule?
A: 100

Q: What about the “Plant response rating, Ryegrass, Italian” value ([10]; Postemergence, 8 g ai/ha) of the same molecule?
A: 35

Q: And the “Plant response rating, Ryegrass, Italian” value ([10]; Postemergence, 16 g ai/ha)?
A: 75

Q: What about the “Plant response rating, Ryegrass, Italian” value ([10]; Postemergence, 31 g ai/ha) of the same molecule?
A: 90

Q: And the “Plant response rating, Ryegrass, Italian” value ([10]; Postemergence, 62 g ai/ha)?
A: 95

Q: What about the “Plant response rating, Morningglory” value ([11]; 16 g ai/ha, Preemergence) of the same molecule?
A: 0

Q: What about the “Plant response rating, Morningglory” value ([11]; 31 g ai/ha, Preemergence) of the same molecule?
A: 0

Q: What about the “Plant response rating, Morningglory” value ([11]; 62 g ai/ha, Preemergence) of the same molecule?
A: 0

Q: And the “Plant response rating, Morningglory” value ([11]; Postemergence, 8 g ai/ha)?
A: 0

Q: What about the “Plant response rating, Morningglory” value ([11]; Postemergence, 16 g ai/ha) of the same molecule?
A: 0

Q: And the “Plant response rating, Morningglory” value ([11]; Postemergence, 31 g ai/ha)?
A: 0

Q: And the “Plant response rating, Morningglory” value ([11]; Postemergence, 62 g ai/ha)?
A: 0

Q: And the “Plant response rating, Johnsongrass” value ([12]; 16 g ai/ha, Preemergence)?
A: 75

Q: What about the “Plant response rating, Johnsongrass” value ([12]; 31 g ai/ha, Preemergence) of the same molecule?
A: 85

Q: What about the “Plant response rating, Johnsongrass” value ([12]; 62 g ai/ha, Preemergence) of the same molecule?
A: 98

Q: What about the “Plant response rating, Johnsongrass” value ([12]; Postemergence, 8 g ai/ha) of the same molecule?
A: 50

Q: What about the “Plant response rating, Johnsongrass” value ([12]; Postemergence, 16 g ai/ha) of the same molecule?
A: 75

Q: And the “Plant response rating, Johnsongrass” value ([12]; Postemergence, 31 g ai/ha)?
A: 98

Q: And the “Plant response rating, Johnsongrass” value ([12]; Postemergence, 62 g ai/ha)?
A: 98

Q: And the “Plant response rating, Signalgrass” value ([13]; 16 g ai/ha, Preemergence)?
A: 75

Q: What about the “Plant response rating, Signalgrass” value ([13]; 31 g ai/ha, Preemergence) of the same molecule?
A: 98

Q: What about the “Plant response rating, Signalgrass” value ([13]; 62 g ai/ha, Preemergence) of the same molecule?
A: 100

Q: And the “Plant response rating, Signalgrass” value ([13]; Postemergence, 8 g ai/ha)?
A: 75

Q: What about the “Plant response rating, Signalgrass” value ([13]; Postemergence, 16 g ai/ha) of the same molecule?
A: 75

Q: And the “Plant response rating, Signalgrass” value ([13]; Postemergence, 31 g ai/ha)?
A: 95

Q: And the “Plant response rating, Signalgrass” value ([13]; Postemergence, 62 g ai/ha)?
A: 100

Q: And the “Plant response rating, Quackgrass” value ([14]; 16 g ai/ha, Preemergence)?
A: 20

Q: And the “Plant response rating, Quackgrass” value ([14]; 31 g ai/ha, Preemergence)?
A: 20

Q: What about the “Plant response rating, Quackgrass” value ([14]; 62 g ai/ha, Preemergence) of the same molecule?
A: 60

Q: And the “Plant response rating, Quackgrass” value ([14]; Postemergence, 8 g ai/ha)?
A: 0

Q: What about the “Plant response rating, Quackgrass” value ([14]; Postemergence, 16 g ai/ha) of the same molecule?
A: 30

Q: And the “Plant response rating, Quackgrass” value ([14]; Postemergence, 31 g ai/ha)?
A: 60

Q: What about the “Plant response rating, Quackgrass” value ([14]; Postemergence, 62 g ai/ha) of the same molecule?
A: 70

Q: What about the “Plant response rating, Bermudagrass” value ([15]; 8 g ai/ha, Preemergence) of the same molecule?
A: 90

Q: What about the “Plant response rating, Bermudagrass” value ([15]; 16 g ai/ha, Preemergence) of the same molecule?
A: 90

Q: And the “Plant response rating, Bermudagrass” value ([15]; 31 g ai/ha, Preemergence)?
A: 98

Q: And the “Plant response rating, Bermudagrass” value ([15]; 62 g ai/ha, Preemergence)?
A: 100

Q: What about the “Plant response rating, Bermudagrass” value ([15]; Postemergence, 8 g ai/ha) of the same molecule?
A: 70

Q: And the “Plant response rating, Bermudagrass” value ([15]; Postemergence, 16 g ai/ha)?
A: 80

Q: What about the “Plant response rating, Bermudagrass” value ([15]; Postemergence, 31 g ai/ha) of the same molecule?
A: 90

Q: And the “Plant response rating, Bermudagrass” value ([15]; Postemergence, 62 g ai/ha)?
A: 95

Source: patent publication US20100267561A1, “HERBICIDAL PYRIDAZINONE DERIVATIVES” (priority 2007, published 2010)
